This is an account of results in patent publication US7709482B2, “Polycyclic heteroaryl substituted triazoles useful as Axl inhibitors” (Rigel Pharmaceuticals, Inc., priority 2006, dated 2010).

Where two headings read alike, the source gives them in different places.

This test addresses T1, Axl (Homo sapiens, UniProt P30530).
T1 construct: endogenous in cells; host or cells: HeLa cells
T1 sequence (P30530 26-894): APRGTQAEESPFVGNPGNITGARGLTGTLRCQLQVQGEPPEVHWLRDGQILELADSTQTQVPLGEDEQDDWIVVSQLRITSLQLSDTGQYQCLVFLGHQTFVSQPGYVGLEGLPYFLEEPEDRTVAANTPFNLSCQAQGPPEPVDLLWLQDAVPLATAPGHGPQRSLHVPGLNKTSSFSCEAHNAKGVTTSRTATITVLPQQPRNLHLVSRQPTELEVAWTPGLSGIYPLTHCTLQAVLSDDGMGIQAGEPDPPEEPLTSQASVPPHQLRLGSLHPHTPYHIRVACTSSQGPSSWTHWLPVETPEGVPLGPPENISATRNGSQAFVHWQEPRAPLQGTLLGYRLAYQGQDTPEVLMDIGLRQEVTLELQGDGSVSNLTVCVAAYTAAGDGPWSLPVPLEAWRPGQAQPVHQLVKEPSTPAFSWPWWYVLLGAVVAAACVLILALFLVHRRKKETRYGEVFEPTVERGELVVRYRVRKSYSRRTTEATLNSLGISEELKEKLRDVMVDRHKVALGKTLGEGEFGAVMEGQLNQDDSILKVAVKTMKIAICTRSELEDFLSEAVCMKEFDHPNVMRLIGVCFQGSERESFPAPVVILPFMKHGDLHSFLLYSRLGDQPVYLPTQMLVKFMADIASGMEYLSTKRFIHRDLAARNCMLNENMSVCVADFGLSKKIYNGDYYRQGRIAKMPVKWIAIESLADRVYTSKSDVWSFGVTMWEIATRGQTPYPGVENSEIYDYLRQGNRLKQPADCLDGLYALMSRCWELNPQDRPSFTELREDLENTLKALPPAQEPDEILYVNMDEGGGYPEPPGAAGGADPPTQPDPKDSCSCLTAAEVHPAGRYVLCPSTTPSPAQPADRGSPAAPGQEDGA
In words: Phospho-Akt In-Cell Western Assay (inhibition of Axl activity after Axl-antibody cross-linking). As to conditions: read-out: IC50. In kind it is cell-based. In short, it runs like this: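 HeLa cells on poly-L-lysine, starved 24 h in 0.5% FCS DMEM with Axl/Fc 500 ng/mL, pre-treated with compound 1 h at 37 °C, then stimulated 5 min by anti-Axl/anti-mouse antibody cross-linking. Fixed cells probed for phospho-Akt with HRP secondary and chemiluminescent detection.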

The mark [1] stands for this setting: inhibition of Axl activity, Table 1, compounds of formula (Ia).
The mark [2] stands for this setting: Hela cells, phospho-Akt chemiluminescence normalized to relative cell number, compounds of formula (Ia), Table 1.

The term IC50 denotes the midpoint of a concentration-inhibition curve.

On to `CC1(C)COC2(CCCc3ncc(Nc4nc(N)n(-c5cc6c(nn5)-c5ccccc5CCC6)n4)cc3CC2)OC1` [Compound 247, 1-(6,7-dihydro-5H-benzo[6,7]cyclohepta[1,2-c]pyridazin-3-yl)-N^3-(5′,5′-dimethyl-6,8,9,10-tetrahydro-5H-spiro[cycloocta[b]pyridine-7,2′-[1,3]dioxane]-3-yl)-1H-1,2,4-triazole-3,5-diamine], for which, under setting [1], the IC50 was over 20000 nM.
For the compound `Nc1nc(Nc2ccc3c(c2)CCC(NC2CC4CCC2C4)CC3)nn1-c1cc2c(nn1)-c1ccccc1CCC2` (stereo not drawn) [Compound 23, 1-(6,7-dihydro-5H-benzo[6,7]cyclohepta[1,2-c]pyridazin-3-yl)-N^3-(7-((bicyclo[2.2.1]heptan-2-yl)amino)-6,7,8,9-tetrahydro-5H-benzo[7]annulene-2-yl)-1H-1,2,4-triazole-3,5-diamine], under setting [2], the IC50 was under 1000 nM.
Same read-out and setting: under `Nc1nc(Nc2ccc(N3CCC(N4CCCC4)CC3)cc2)nn1-c1cc2c(nn1)-c1ccccc1SCC2` [Compound 120, 1-(6,7-dihydro-5H-benzo[2,3]thiepino[4,5-c]pyridazin-3-yl)-N^3-(4-(4-pyrrolidin-1-ylpiperidinyl)phenyl)-1H-1,2,4-triazole-3,5-diamine] stands under 1000 nM.
Take `C[C@@H]1CCCN1C1CCc2ccc(Nc3nc(N)n(-c4cc5c(nn4)-c4ccccc4CCC5)n3)cc2CC1` (stereo partly drawn) [Compound 220, 1-(6,7-dihydro-5H-benzo[6,7]cyclohepta[1,2-c]pyridazin-3-yl)-N^3-(7-(2-(R)-methylpyrrolidin-1-yl)-6,7,8,9-tetrahydro-5H-benzo[7]annulene-2-yl)-1H-1,2,4-triazole-3,5-diamine]: under setting [1], the IC50 is under 1000 nM.
On to `Nc1ccc(-c2ccc(Nc3nc(N)n(-c4cc5c(nn4)-c4ccccc4CCC5)n3)cn2)cn1` [Compound 94, 1-(6,7-dihydro-5H-benzo[6,7]cyclohepta[1,2-c]pyridazin-3-yl)-N^3-(6-(6-aminopyridin-3-yl)pyridine-3-yl)-1H-1,2,4-triazole-3,5-diamine], for which the IC50 under setting [2] was over 20000 nM.
Turning to `Nc1nc(Nc2ccc3c(c2)CCC(N2CCC[C@H]2C(=O)O)CC3)nn1-c1cc2c(nn1)-c1ccccc1CCC2` (stereo partly drawn) [Compound 195, 1-(6,7-dihydro-5H-benzo[6,7]cyclohepta[1,2-c]pyridazin-3-yl)-N^3-((7-(2-(S)-carboxy)pyrrolidin-1-yl)-6,7,8,9-tetrahydro-5H-benzo[7]annulene-2-yl)-1H-1,2,4-triazole-3,5-diamine], the IC50 under setting [1] fell in the range of 1000 to 10000 nM.
The same measure, in the same setting: under `Nc1nc(Nc2cnc3c(c2)CN(C2CCCC2)CC3)nn1-c1cc2c(nn1)-c1ccccc1CCC2` [Compound 190, 1-(6,7-dihydro-5H-benzo[6,7]cyclohepta[1,2-c]pyridazin-3-yl)-N^3-(6-cyclopentyl-5,6,7,8-tetrahydro-1,6-naphthyridine-3-yl)-1H-1,2,4-triazole-3,5-diamine] stands under 1000 nM.
With `COc1ccc2c(c1)CCCc1cc(-n3nc(Nc4ccc(N5CCN(C6CCCCC6)CC5)c(F)c4)nc3N)nnc1-2` [Compound 57, 1-(6,7-dihydro-5H-9-methoxybenzo[6,7]cyclo-hepta[1,2-c]pyridazin-3-yl)-N^3-(3-fluoro-4-(4-(cyclohexyl)piperazin-1-yl)phenyl)-1H-1,2,4-triazole-3,5-diamine], under setting [2], the IC50 is over 20000 nM.
As to `Cc1csc2c(-n3nc(Nc4cnc5c(c4)CC4(CCC5)OCCO4)nc3N)nc(Cl)nc12` [Compound 240, 1-(2-chloro-7-methylthieno[3,2-d]pyrimidin-4-yl)-N^3-(5,7,8,9-tetrahydrospiro[cyclohepta[b]pyridine-6,2′-[1,3]dioxolane]-3-yl)-1H-1,2,4-triazole-3,5-diamine], the IC50 under setting [1] is under 1000 nM.
